pIC50: −log10 of the molar value. Calls of active or inactive are those of the source. The calls are words filed in the database; no cut-off is given here.
Key:
SK-BR-3 [1] = experiment: Induction of DNA damage in human SK-BR-3 cells assessed as increase in gamma-H2AX level at IC50 concentration incubated for 6 days by flow cytometric analysis; format: functional, cell-based; settings: time 6.0 day
Quadruplex DNA [2] = experiment: Binding affinity to HER2 G4 quadruplex DNA (GGAGAAGGAGGAGGTGGAGGAGGAGGG) (unknown origin) assessed as equilibrium binding constant (Ka) by ITC analysis; format: nucleic-acid assay
MDA-MB-231 [3] = experiment: Induction of DNA damage in human MDA-MB-231 cells assessed as increase in gamma-H2AX level at IC25 concentration incubated for 6 days by flow cytometric analysis; format: functional, cell-based; settings: time 6.0 day
MCF7 [4] = experiment: Downregulation of c-MYC protein expression in human MCF7 cells at IC50 concentration incubated for 6 days by Western blotting analysis; format: functional, cell-based; settings: time 6.0 day
Quadruplex DNA [5] = experiment: Stabilization of G4 quadruplex DNA (unknown origin) in human SK-BR-3 cells assessed as increase in G4 motif at IC50 concentration incubated for 6 days by flow cytometric analysis; format: cell-based; settings: time 6.0 day
Quadruplex DNA [6] = experiment: Binding affinity to c-Myc G4 quadruplex DNA (TGAGGGTGGGTAGGGTGGGTAA) (unknown origin) assessed as change in entropy by ITC analysis; format: nucleic-acid assay
Quadruplex DNA [7] = settings: time 10.0 min
MDA-MB-231 [8] = experiment: Induction of DNA damage in human MDA-MB-231 cells assessed as increase in gamma-H2AX level incubated for 6 days by flow cytometric analysis; format: functional, cell-based; settings: time 6.0 day
MCF7 [9] = experiment: Induction of cell cycle arrest in human MCF7 cells assessed as reduction in G1 phase at IC25 concentration incubated for 6 days by PI staining based flow cytometric analysis; format: functional; settings: time 6.0 day
SK-BR-3 [10] = experiment: Induction of cell cycle arrest in human SK-BR-3 cells assessed as accumulation of cells at G2/M phase at IC50 concentration incubated for 6 days by PI staining based flow cytometric analysis; format: functional; settings: time 6.0 day
SK-BR-3 [11] = experiment: Induction of cell cycle arrest in human SK-BR-3 cells assessed as accumulation of cells at G2/M phase at IC25 concentration incubated for 6 days by PI staining based flow cytometric analysis; format: functional; settings: time 6.0 day
MCF7 [12] = experiment: Induction of DNA damage in human MCF7 cells assessed as increase in gamma-H2AX level at IC25 concentration incubated for 6 days by flow cytometric analysis; format: functional, cell-based; settings: time 6.0 day
MCF7 [13] = experiment: Induction of cell cycle arrest in human MCF7 cells assessed as reduction in G1 phase at IC50 concentration incubated for 6 days by PI staining based flow cytometric analysis; format: functional; settings: time 6.0 day
Quadruplex RNA [14] = settings: time 10.0 min
Quadruplex DNA [15] = experiment: Binding affinity to c-Myc G4 quadruplex DNA (TGAGGGTGGGTAGGGTGGGTAA) (unknown origin) assessed as Gibbs free energy by ITC analysis; format: nucleic-acid assay
Quadruplex RNA [16] = settings: time 10.0 min; remark: listed apart in the source
Quadruplex DNA [17] = experiment: Binding affinity to HER2 G4 quadruplex DNA (GGAGAAGGAGGAGGTGGAGGAGGAGGG) (unknown origin) assessed as binding enthalpy by ITC analysis; format: nucleic-acid assay
MDA-MB-231 [18] = experiment: Induction of DNA damage in human MDA-MB-231 cells assessed as increase in gamma-H2AX level at IC50 concentration incubated for 6 days by flow cytometric analysis; format: functional, cell-based; settings: time 6.0 day
MDA-MB-231 [19] = experiment: Induction of cell cycle arrest in human MDA-MB-231 cells assessed as reduction in G1 phase at IC50 concentration incubated for 6 days by PI staining based flow cytometric analysis; format: functional; settings: time 6.0 day
SK-BR-3 [20] = experiment: Induction of DNA damage in human SK-BR-3 cells assessed as increase in gamma-H2AX level at IC25 concentration incubated for 6 days by flow cytometric analysis; format: functional, cell-based; settings: time 6.0 day
MDA-MB-231 [21] = experiment: Induction of cell cycle arrest in human MDA-MB-231 cells assessed as reduction in G1 phase at IC25 concentration incubated for 6 days by PI staining based flow cytometric analysis; format: functional; settings: time 6.0 day
Quadruplex DNA [22] = settings: time 10.0 min; remark: listed apart in the source
Quadruplex DNA [23] = experiment: Binding affinity to HER2 G4 quadruplex DNA (GGAGAAGGAGGAGGTGGAGGAGGAGGG) (unknown origin) assessed as change in entropy by ITC analysis; format: nucleic-acid assay
Quadruplex DNA [24] = experiment: Stabilization of G4 quadruplex DNA (unknown origin) in human MCF7 cells at IC50 concentration incubated for 6 days by flow cytometric analysis; format: cell-based; settings: time 6.0 day
Quadruplex DNA [25] = experiment: Binding affinity to c-Myc G4 quadruplex DNA (TGAGGGTGGGTAGGGTGGGTAA) (unknown origin) assessed as binding enthalpy by ITC analysis; format: nucleic-acid assay
SK-BR-3 [26] = experiment: Cytotoxicity against human SK-BR-3 cells assessed as reduction in cell viability incubated for 6 days by SRB assay; format: functional, cell-based; settings: for IC25: time 6 day
MCF7 [27] = experiment: Induction of DNA damage in human MCF7 cells assessed as increase in gamma-H2AX level at IC50 concentration incubated for 6 days by flow cytometric analysis; format: functional, cell-based; settings: time 6.0 day
Quadruplex DNA [28] = settings: time 10.0 min; remark: listed apart in the source
Quadruplex DNA [29] = experiment: Stabilization of G4 quadruplex DNA (unknown origin) in human MCF7 cells at IC25 concentration incubated for 6 days by flow cytometric analysis; format: cell-based; settings: time 6.0 day
Quadruplex DNA [30] = experiment: Binding affinity to c-Myc G4 quadruplex DNA (TGAGGGTGGGTAGGGTGGGTAA) (unknown origin) assessed as equilibrium binding constant (Ka) by ITC analysis; format: nucleic-acid assay
Quadruplex DNA [31] = experiment: Binding affinity to HER2 G4 quadruplex DNA (GGAGAAGGAGGAGGTGGAGGAGGAGGG) (unknown origin) assessed as Gibbs free energy by ITC analysis; format: nucleic-acid assay
Quadruplex DNA [32] = settings: time 10.0 min; remark: listed apart in the source
MCF7 [33] = experiment: Cytotoxicity against human MCF7 cells assessed as reduction in cell viability incubated for 6 days by SRB assay; format: functional, cell-based; settings: for IC25: time 6 day
MDA-MB-231 [34] = experiment: Cytotoxicity against human MDA-MB-231 cells assessed as reduction in cell viability incubated for 6 days by SRB assay; format: functional, cell-based; settings: for IC25: time 6 day
MCF7 [35] = experiment: Cytotoxicity against human MCF7 cells assessed as reduction in cell viability at 0.625 to 20 uM incubated for 6 days by SRB assay; format: functional, cell-based; settings: dose 0.625-20 µM, time 6.0 day
SK-BR-3 [36] = experiment: Cytotoxicity against human SK-BR-3 cells assessed as reduction in cell viability at 0.625 to 20 uM incubated for 6 days by SRB assay; format: functional, cell-based; settings: dose 0.625-20 µM, time 6.0 day
MCF7 [37] = experiment: Downregulation of c-MYC protein expression in human MCF7 cells at IC25 concentration incubated for 6 days by Western blotting analysis; format: functional, cell-based; settings: time 6.0 day
[38] = Homo sapiens, MDA-MB-231, 144 h

CCc1c2c(nc3ccc(OC(=O)N4CCC(N5CCCCC5)CC4)cc13)-c1cc3c(c(=O)n1C2)COC(=O)[C@]3(O)CC [IRINOTECAN]
Activity (SK-BR-3 [1]): Active; Slightly Lower Dna Damage Observed
Ka (Quadruplex DNA [2]): 2.2 10^5/M
Activity (MDA-MB-231 [3]): Active
Activity (MCF7 [4]): Active
Activity (Quadruplex DNA [5]): Active
TdeltaS (Quadruplex DNA [6]): 21.8 kJ/mol
deltaTm1/2 (Quadruplex DNA [7]): 14.8 °C
Activity (MDA-MB-231 [8]): Dose-dependent-effect
Activity (MCF7 [9]): Active
Activity (SK-BR-3 [10]): Active
Activity (SK-BR-3 [11]): Active
Activity (MCF7 [12]): Active; Slightly Lower Dna Damage Observed
Activity (MCF7 [13]): Active
deltaTm1/2 (Quadruplex RNA [14]): 6.6 °C
deltaG (Quadruplex DNA [15]): -29.6 kJ/mol
deltaTm1/2 (Quadruplex RNA [16]): > 20 °C
deltaH (Quadruplex DNA [17]): -22.6 kJ/mol
Activity (MDA-MB-231 [18]): Active
Activity (MDA-MB-231 [19]): Active
Activity (SK-BR-3 [20]): Active; Slightly Lower Dna Damage Observed
Activity (MDA-MB-231 [21]): Active
deltaTm1/2 (Quadruplex DNA [22]): 8.7 °C
TdeltaS (Quadruplex DNA [23]): 7.9 kJ/mol
Activity (Quadruplex DNA [24]): Active
deltaH (Quadruplex DNA [25]): -7.8 kJ/mol
pIC50 (SK-BR-3 [26]; Homo sapiens, SK-BR-3, 144 h): 6.30
IC25 (SK-BR-3 [26]; Homo sapiens, SK-BR-3, 144 h, read-out: IC25): 0.36 µM
Activity (MCF7 [27]): Active; Slightly Lower Dna Damage Observed
deltaTm1/2 (Quadruplex DNA [28]): 19.6 °C
Activity (Quadruplex DNA [29]): Active
Ka (Quadruplex DNA [30]): 1.5 10^5/M
deltaG (Quadruplex DNA [31]): -30.5 kJ/mol
deltaTm1/2 (Quadruplex DNA [32]): 19 °C
pIC50 (MCF7 [33]; Homo sapiens, MCF7, 144 h): 6.32
IC25 (MCF7 [33]; Homo sapiens, MCF7, 144 h, read-out: IC25): 0.28 µM
pIC50 (MDA-MB-231 [34]; [38]): 5.80
IC25 (MDA-MB-231 [34]; Homo sapiens, MDA-MB-231, 144 h, read-out: IC25): 1.1 µM

Cc1c(-c2ccccc2)oc2c(C(=O)OCCN3CCCCC3)cccc2c1=O
deltaTm1/2 (Quadruplex DNA [7]): 4.9 °C
Activity (MCF7 [35]): Active
deltaTm1/2 (Quadruplex RNA [14]): 5.6 °C
deltaTm1/2 (Quadruplex RNA [16]): 8.5 °C
Activity (SK-BR-3 [36]): Active
deltaTm1/2 (Quadruplex DNA [22]): -2.6 °C
deltaTm1/2 (Quadruplex DNA [28]): 9.8 °C
deltaTm1/2 (Quadruplex DNA [32]): 4.5 °C

CC[C@@]1(O)C(=O)OCc2c1cc1n(c2=O)Cc2c-1nc1ccccc1c2CCNC(C)C [BELOTECAN]
Activity (SK-BR-3 [1]): Active; Slightly Lower Dna Damage Observed
Ka (Quadruplex DNA [2]): 2.3 10^5/M
Activity (Quadruplex DNA [5]): Active
TdeltaS (Quadruplex DNA [6]): 7.5 kJ/mol
deltaTm1/2 (Quadruplex DNA [7]): 12.7 °C
Activity (MCF7 [37]): Active
Activity (SK-BR-3 [10]): Active
Activity (SK-BR-3 [11]): Active
Activity (MCF7 [12]): Active; Slightly Lower Dna Damage Observed
deltaTm1/2 (Quadruplex RNA [14]): 6.6 °C
deltaG (Quadruplex DNA [15]): -30.5 kJ/mol
deltaTm1/2 (Quadruplex RNA [16]): 14.7 °C
deltaH (Quadruplex DNA [17]): -28 kJ/mol
Activity (SK-BR-3 [20]): Active; Slightly Lower Dna Damage Observed
Activity (MDA-MB-231 [21]): Active
deltaTm1/2 (Quadruplex DNA [22]): 7.5 °C
TdeltaS (Quadruplex DNA [23]): 2.6 kJ/mol
deltaH (Quadruplex DNA [25]): -23 kJ/mol
pIC50 (SK-BR-3 [26]; Homo sapiens, SK-BR-3, 144 h): 8.70
IC25 (SK-BR-3 [26]): 0.9 10^-3microM
Activity (MCF7 [27]): Active; Slightly Lower Dna Damage Observed
deltaTm1/2 (Quadruplex DNA [28]): 16.2 °C
Activity (Quadruplex DNA [29]): Active
Ka (Quadruplex DNA [30]): 2.3 10^5/M
deltaG (Quadruplex DNA [31]): -30.6 kJ/mol
deltaTm1/2 (Quadruplex DNA [32]): 15.9 °C
pIC50 (MCF7 [33]; Homo sapiens, MCF7, 144 h): 8.92
IC25 (MCF7 [33]): 0.5 10^-3microM
pIC50 (MDA-MB-231 [34]; [38]): 8.62
IC25 (MDA-MB-231 [34]): 1.4 10^-3microM
